From publication PMC10009108, “Design, synthesis and screening of indole acetic acid-based tri-azo moieties as antioxidants, anti-microbial and cytotoxic agents” (Frontiers in Pharmacology, 2023) come the findings set out here.

Values after ≈ are worked out from the molar mass of the structure shown.

Data set [1] concerns Bacillus subtilis (ATCC-6633). As to the kind of experiment: Antibacterial assay, micro broth dilution. Format: cell-based. Further details: key to Antibacterial activity, Bacillus subtilis: Activity: Active = Bacterial activity; --- = no activity. An excerpt:
(§1) The micro broth dilution method was used to establish the antibacterial potential of test samples against Staphylococcus aureus (ATCC-6538), Bacillus subtilis (ATCC-6633), Escherichia coli (ATCC-25922), Klebsiella pneumoniae (ATCC-1705), and Pseudomonas aeruginosa (ATCC-15442) and for the resistant strains of MRSA Staphylococcus aureus, P. aeruginosa and Escherichia coli. The procedure used is described by ([Sarker et al., 2007]). Bacterial inoculum was formed under aseptic conditions keeping the density near 5 × 10^4 CFU/mL in pre-autoclaved nutrient broth. Test samples of an aliquot of 5 µL were shifted to labeled wells of 96 well plates, and after that addition of 195 µL of nutrient broth; was accomplished. After that, a 2-fold serial dilution of every sample was arranged to get final concentrations of 12.5 μg/mL. Then, with the help of a micropipette, 195 µL of bacterial culture of respective strains was poured into each well; further advancement was incubating of plates for 30 min at the temperature of 37°C. […] Incubation of plates was again carried out at 37°C for 1 day, absorbance was noted, and net change in turbidity was the difference between two values of absorbance.
(§2) Schiff base tri-azo compounds were investigated for antibacterial potential. […] 6.25 μg/mL for 5b and 5g, and the least, Table 4 3.12 μg/mL was for 5f. […] Substituents with electron-withdrawing attributes, e.g., -NO2, -Cl, -OH on the aromatic ring, assert a great impact on the antibacterial activity of synthetic compounds. It is also observed that an increase in the number of -OH groups tend to enhance the activity ([Hosamani and Shingalapur, 2011]). Due to the difference in cell-wall composition of Gram + ve and -ve bacteria, different compounds show different features towards the same micro-organism ([Goszczyn’ska et al., 2015]).

Data set [2] has as its system Escherichia coli (ATCC-25922). The data set can be described thus: Antibacterial assay, micro broth dilution. Format: cell-based. Particulars: ATCC25922, read-out: E. coli MIC.
Source text: as §1, §2
On the technique in general: Broth dilution looks for growth in wells or tubes with falling amounts of substance.

Data set [3] deals with Klebsiella pneumoniae (ATCC-1705). The data set can be described thus: Antibacterial assay, micro broth dilution. Type of data set: cell-based. Particulars: ATCC1705.
Source text: as §1, §2

In data set [4] the test system is Pseudomonas aeruginosa (ATCC-15442). As to the kind of experiment: Antibacterial assay, micro broth dilution. Particulars: ATCC15442. Format: cell-based.
Source text: as §1, §2

Data set [5] deals with Staphylococcus aureus (ATCC-6538). The data set can be described thus: Antibacterial assay, micro broth dilution. Particulars: ATCC6538, read-out: S. aureus MIC. Format: cell-based.
Source text: as §1, §2

The test system of data set [6] is resistant S. aureus. As to the kind of experiment: Antibacterial assay, resistant strains. Type of data set: cell-based, Staphylococcus aureus. Particulars: resistant strain.
Source text: as §1, §2

Data set [7] deals with MRSA. As to the kind of experiment: Antibacterial assay, resistant strains. Type of data set: cell-based. The settings on record: Staphylococcus aureus, resistant strain.
Source text: as §1, §2

Data set [8] has as its system resistant P. aeruginosa. As to the kind of experiment: Antibacterial assay, resistant strains. Format: cell-based. The settings on record: resistant strain.
Source text: as §1, §2

Data set [9] has as its system resistant E.coli. As to the kind of experiment: Antibacterial assay, resistant strains. Format: cell-based, Escherichia coli. Particulars: resistant strain.
Source text: as §1, §2

Data set [10] deals with Staphylococcus aureus (ATCC-6538). The data set can be described thus: Antibacterial assay, micro broth dilution. Particulars: 25 μg/mL. Set-up: key: Active = Bacterial activity; --- = no activity. Format: cell-based.
Data set [11] has as its system Pseudomonas aeruginosa (ATCC-15442). The data set can be described thus: Antibacterial assay, micro broth dilution. Format: cell-based. Further details: key: Active = Bacterial activity; --- = no activity. The settings on record: 25 μg/mL.
Data set [12] relates to Klebsiella pneumoniae (ATCC-1705). The data set can be described thus: Antibacterial assay, micro broth dilution. Type of data set: cell-based. Set-up: key: Active = Bacterial activity; --- = no activity. The settings on record: 25 μg/mL.
Data set [13] relates to Escherichia coli (ATCC-25922). As to the kind of experiment: Antibacterial assay, micro broth dilution. Type of data set: cell-based. Further details: key: Active = Bacterial activity; --- = no activity. Particulars: 25 μg/mL.
The subject of data set [14] is MRSA. As to the kind of experiment: Antibacterial assay, resistant strains. Format: cell-based, Staphylococcus aureus. Particulars: 25 μg/mL; resistant strain.
For data set [15], the system named is Mucor species (FCBP-0300). As to the kind of experiment: Antifungal disc diffusion assay. Type of data set: cell-based. The settings on record: Mucor; 20 μg/disc. How it is done:
(§3) The antifungal response to these chemical moieties was evaluated through a procedure designated by ([Zahra et al., 2017]). Amphotericin B (4 mg/mL DMSO) is used as + ve control and DMSO as-ve one (5 μL/disc). Sterile SDA-coated plates were used, on which 100 µL of suspension of spores for each strain (previously reaped-in-Tween-20 solution) was spread. Discs of sterile filter paper containing 5 µL of sample solution (4 mg/mL DMSO) were kept on plates and incubated for 2 days at 28°C. Zones of inhibition were recorded.
(§4) The Synthetic compound library was subjected to an antifungal assay using five different strains of Fungai, i.e., Fusarium solani (FCBP-0291), Aspergillus fumigatus (FCBP-66), Aspergillus flavus (FCBP-0064), Aspergillus niger (FCBP-0198) and Mucor species (FCBP-0300). Amphotericin B was the standard drug used. […] The outcomes are concise in Table 5.
In general terms: In agar diffusion tests the substance spreads into inoculated agar from a disc or well.

For data set [16], the system named is Aspergillus niger (FCBP-0198). The data set can be described thus: Antifungal disc diffusion assay. The settings on record: Aspergillus niger; 20 μg/disc. Format: cell-based. The procedure:
as §3, §4

In data set [17] the test system is Aspergillus flavus (FCBP-0064). The data set can be described thus: Antifungal disc diffusion assay. Type of data set: cell-based. Particulars: Aspergillus flavus; 20 μg/disc. How it is done:
as §3, §4

The subject of data set [18] is Aspergillus fumigatus (FCBP-66). As to the kind of experiment: Antifungal disc diffusion assay. Format: cell-based. The settings on record: Aspergillus fumigatus; 20 μg/disc. The procedure: as §3, §4
The test system of data set [19] is Fusarium solani (FCBP-0291). As to the kind of experiment: Antifungal disc diffusion assay. Type of data set: cell-based. Particulars: Fusarium solani, 20 μg/disc; read-out: Zone of inhibition, F. solani. The procedure: as §3, §4
A short description of data set [20]: in vivo. The procedure:
The cytotoxic evaluation was accomplished using the decorum designed by ([Khan et al., 2011]). To a plate of 96 wells, artificial seawater and nauplii were added. Test samples were taken in wells (40, 20, 10, 5 μg/mL) after making up the final volume with seawater, the plates were left uncovered under the lamp, and after 24 h, the number of surviving larvae was calculated. For samples having ≥50% mortality, the median lethal conc was calculated using the table curve software, Doxorubicin was used as + ve control, and DMSO was the -ve. The percentage of killed organisms was found using the formula. Percentage Mortality=No of dead shrimps÷Total Number of Shrimps×100
The results of all the experiments were articulated as mean ± SD. Each test was performed in triplicate. TAC assay was analyzed by one-way analysis of variance (ANOVA) following DUNCAN’S test using the statistical package for social sciences 18 and p < 0.05 was considered as significant where appropriate. For samples having ≥50% mortality, the median lethal concentration (LC50) was calculated using the table curve software.
This evaluation test forms the basis for the bioactive scanning of compounds for their potential as anti-cancer moieties, to be investigated on a large scale ([Amanullah et al., 2012]). […] Similarities between Artemia salina and mammalian cells have been reported due to DNA-dependent RNA polymerases ([Birndorf et al., 1975]). These Schiff bases were investigated for their cytotoxic potential. […] Doxorubicin was used as the positive control.

For data set [21], the system named is Streptomyces 85 E strains. The data set can be described thus: Protein kinase inhibition assay. Type of data set: cell-based. Set-up: key: Active = Bacterial activity; --- = no activity. The settings on record: Sample Concentration = 20 μg/mL; Surfactin B 20 μg/mL. How it is done:
The protocol followed for this is mentioned ([Fatima et al., 2015]). To assess the test compound’s inhibitory potential, Streptomyces 85 E strains were used, which were refreshed in tryptone soya broth at 37 for 1 day. Spores from refreshed cultures were utilized to prepare the bacterial culture. 100 μg compound was loaded on 5 mm discs of filter paper. These were kept on sowed plates. DMSO-permeated discs were the -ve control. The incubation period was 7 days, and outcomes were stated as bald and clear zones of inhibition.
These synthetic products were evaluated to estimate the inhibitory potential for protein kinase of […] 85 E. Protein kinase is involved with the mycelium production of this species, so the growth patterns were observed as the bald zone. […] One of the propitious targets in cancer treatment is the inhibition of protein kinases. Protein phosphorylation by protein kinases at various residues regulates diverse biological processes, which may include apoptosis, proliferation and differentiation of cells. Deregulation at any step in early tumorigenesis may lead to cancer ([Yao et al., 2011]). Aerial hyphae formation in Streptomyces depends upon protein kinase activity; this scenario is exploited in this test; to inquire about these compounds’ kinase inhibition potential and to look at their anti-cancer potential. The advantage of using Streptomyces for kinase inhibition assay is its predisposition to a wide range of eukaryotic cells. Whole-cell assay of Streptomyces not only identifies the compound’s cytotoxic potential but also identifies signal transduction inhibitors for various activities, e.g., antitumor, anti-mycobacterial, and anti-infective ([Waters et al., 2002]). […] Activity with a bald zone of 10.5 mm and a clear zone of 7.5 mm, following is 5a with a bald zone of 9 mm and a clear zone of 6 mm, and for 5g, values are 7.5 and 6 mm, respectively. It means that these compounds have the potential for protein kinase inhibition as well as the toxicity of the compound.

For data set [22], the system named is Streptomyces 85 E strains. The data set can be described thus: Protein kinase inhibition assay. Format: cell-based. Particulars: Sample Concentration = 20 μg/mL; Surfactin B 20 μg/mL.

As to `O=C(O)c1cn(C2CC2)c2cc(N3CCNCC3)c(F)cc2c1=O` [Ciprofloxacin, reference compound], the “Antibacterial activity, Bacillus subtilis: Activity” value in [1] (25 μg/mL) is reported as “Active”. Further, the MIC in data set [1] (Bacillus subtilis, ATCC6633) worked out at 3.12 µg/mL (≈ 9.42 µM); in data set [2], 3.12 µg/mL (≈ 9.42 µM); in data set [3], 3.12 µg/mL (≈ 9.42 µM); in data set [4] it was 3.12 µg/mL (≈ 9.42 µM); in data set [5] it was 3.12 µg/mL (≈ 9.42 µM); in data set [6] (Staphylococcus aureus) it was 3.12 µg/mL (≈ 9.42 µM). Moreover, the MIC in data set [7], in data set [8] (Pseudomonas aeruginosa) and in data set [9] (Escherichia coli) was 3.12 µg/mL (≈ 9.42 µM) throughout. In addition, the “Antibacterial activity, resistant S. aureus: Activity” value in [6] (25 μg/mL) is reported as “Active”. Besides, in data set [8] (25 μg/mL), the “Antibacterial activity, resistant P. aeruginosa: Activity” value is given as “Active”. In [9] (25 μg/mL), the “Antibacterial activity, resistant E.coli: Activity” value is reported as “Active”. Besides, the “Antibacterial activity, S. aureus: Activity” value in [10] was “Active”. The “Antibacterial activity, Pseudomonas aeruginosa: Activity” value in data set [11] is “Active”. Besides, in [12], the “Antibacterial activity, Klebsiella pneumoniae: Activity” value was “Active”. Moreover, the “Antibacterial activity, E. coli: Activity” value in data set [13] is listed as “Active”. For the same compound, the “Antibacterial activity, MRSA: Activity” value in [14] is recorded as “Active”.

Take `C[C@@H]1[C@H](O)[C@@H](C)/C=C/C=C/C=C/C=C/C=C/C=C/C=C/[C@H](O[C@@H]2O[C@H](C)[C@@H](O)[C@H](N)[C@@H]2O)C[C@@H]2O[C@](O)(C[C@@H](O)C[C@@H](O)[C@H](O)CC[C@@H](O)C[C@@H](O)CC(=O)O[C@H]1C)C[C@H](O)[C@H]2C(=O)O` [Amphotericin B, reference compound]: the zone of inhibition at 20 µg/disc was found to be 11.5 mm in data set [15]; 12.5 mm in data set [16]; 12 mm in data set [17]; 10 mm in [18]; 11.5 mm in [19].

`COc1cccc2c1C(=O)c1c(O)c3c(c(O)c1C2=O)C[C@@](O)(C(=O)CO)C[C@@H]3O[C@H]1C[C@H](N)[C@H](O)[C@H](C)O1` [Doxorubicin, reference compound]: the LC50 at 24 h in [20] came out at 5.7 µg/mL (≈ 10.5 µM).

Turning to Surfactin B [reference compound], the Clear zone entry in data set [21] is “---”. Besides, the Bald zone in data set [22] turned out to be 22.3 mm.

For orientation: MIC means the lowest concentration found to suppress growth. The term zone of inhibition denotes the extent of the growth-free halo in a diffusion test. What is called LC50 is the concentration lethal to half of the exposed cells or organisms.
